Entries after “also recorded” stand apart in the source; their conditions may differ.
Assays:
[1] = test system: S. orientale F3 plants (cross B); assay: progeny test segregation analysis, visual injury after 2,4-D spray; assay type: in vivo, Sisymbrium orientale; conditions: 200 gai ha^-1 2,4-D, 28 days after treatment
Method: A progeny test segregation analysis was performed on 219 F3 plants derived from self-pollination of a heterozygous F2 individual from cross B, identified via progeny test due to segregation of 2,4-D resistance in the F3 progeny. Plants were sprayed with 200 gai ha^−1 2,4-D at the 5 true leaf stage. Damage percentage was evaluated at 28 days after treatment. Leaf tissue was harvested and genomic DNA was extracted by CTAB. A KASP assay was performed with primers and methods as described above. To further test the co-segregation between the resistant phenotype and IAA2Δ27, nine each of R and S RILs from cross A and three each of R and S RILs from cross B were genotyped using the KASP assay. Two individuals were genotyped from each RIL.

IAA2 expression = IAA2 expression by Q-PCR after auxin treatment of seedlings; assay type: in vivo, Sisymbrium orientale; conditions: for increase of IAA2 expression compared to untreated plants and DMSO control: 2 hr exposure
Method: To study IAA2 expression under auxin treatments sterilized seeds from F5 RILs for each phenotype were planted in half MS and grown until expanded cotyledon stage (size was about 2 cm from root to cotyledon tips). […] After exposure plants were collected into 2 ml centrifuge tubes and frozen in liquid nitrogen. RNA was extracted using Direct-zol RNA Microprep from Zymo research, DNAase treatment was done using DNaseI from Invitogen—ThermoFisher and cDNA was generated using iScript™ according to each manufacture protocol. Q-PCR (CFX Connect™ Real-Time PCR Detection System thermal cycler, BioRad, Hercules, Calif.) was used to determine IAA2 expression. The qPCR reaction contained 12.5 μl of SYBR Green (PerfeCTa SYBR Green FastMix), 1 μl each of forward and reverse primers (5 μM), and 1 uL of cDNA for a final reaction volume of […] parameters were 50° C. for 2 min, 95° C. for 10 min, and 40 cycles of 95° C. for 30 s and 60° C. for 1 min. Relative expression quantification was calculated by Expression=2^ΔCt, where ΔCT=CT(average of Actin2 and Cyclophilin)−CT(IAA2). Each biological sample was run in two technical replicates.

[2] = test system: Arabidopsis thaliana (Col-0); assay: 2,4-D spray of transformed Arabidopsis; assay type: in vivo; conditions: 200 g a.i. ha^-1
Method: Arabidopsis transformation was performed based on established protocols with modifications. IAA2 alleles were amplified by PCR from cDNA generated from RNA extracts of homozygous R and S F5 lines (cross A). RNA was extracted using Direct-zol RNA Miniprep Plus Kit (Zymo). cDNA synthesis was performed using oligo(dT)20 primers from SuperScript™ II Reverse Transcriptase (Invitrogen). Wild-type and mutant alleles were amplified by PCR using PrimeSTAR HS Premix (Takara), using primers linked with restriction enzyme sites for cloning. Purified PCR amplicons were ligated into the pGEM-T Easy Vector (Promega), transformed into E. coli, sequenced by Sanger sequencing, and digested using the restriction sites AscI and BamHI (New England BioLabs). The digested product was then ligated into the binary vector pFGC5941 and cloned into Agrobacterium tumefaciens (strain GV3101). For plant transformation, Agrobacterium 400 mL liquid cultures were incubated at 28 C overnight and after centrifugation, resuspended in a 300 mL transformation solution (5% sucrose and 0.02% Silwet L-77). Each allele of IAA2 was transformed into Arabidopsis thaliana (Col-0) by floral dip and grown to seed production.
For transformant selection, 40 mg of transformed seeds for each IAA2 allele were cleaned with bleach solution (12.5%) and plated at half MS selective media with Cefotaxime (200 mg/L) and glufosinate-ammonium (7.5 mg/L). After two weeks, positive transformants were transferred to a second selective plate with half MS, Cefotaxime (100 mg/L) and glufosinate-ammonium (5 mg/L). After selection, potential transformants were transferred to soil and grown until seed production. For T2 selection, 36 seeds were cleaned and grown on half MS and glufosinate-ammonium (5 mg/L) media. T3 homozygous plants containing just one copy of the T-DNA vector were selected and IAA2 expression was analyzed using the same primers from mustard expression assay (see below), AtCyclophilin and AtActin2 were used as normalization genes. […]

Arabidopsis root growth = assay: root growth assay, transformed Arabidopsis; assay type: in vivo, Arabidopsis thaliana; conditions: for root growth tolerance compared with null vector or wild type gene: Arabidopsis transformed with mutant S. orientale IAA2Δ27; for root growth response: Arabidopsis transformed with the null vector
Method: (§1) All root assays were performed on 120 mm square petri dishes with half MS and 1% phytoagar. […] For the mustard root assay, ten seedlings (3 days after germination) of F5 RILs of each phenotype were transferred to an auxin treated or control plate, the root tip of each plant was marked and root growth was evaluated seven days after treatment. For Arabidopsis, sterilized seeds were planted directly on the treated petri dish and incubated at 4° C. for seed […] and moved to the growth chamber after 3 days. T3 homozygous plants of 35::SoIAA2WT, 35::SoIAA2Δ27, the T-DNA insertion line on AtIAA2 and the empty T-DNA from PFGC5941 plasmid as control were used in this study. Twelve plants per construct ware used in total and roots were measured three weeks after the plates were moved to the growth conditions. For all root assays, seeds were gas sterilized for 6 hours using bleach and hydrochloric acid. The plants were grown under controlled conditions of 180 uMol m^−2 light intensity, relative humidity of 60%, 16 hours of day and day/night temperatures of 22/18° C.

TIR1/auxin/IAA complex = assay: surface plasmon resonance (SPR) binding assay; parameters: species or system Sisymbrium orientale; conditions: mutant IAA2Δ27 peptide vs IAA2 wild-type; compound 50 μM
Excerpt: In short, this assay measures the binding of auxin and IAA to the receptor protein TIR1 and their unbinding.
Surface plasmon resonance (SPR) experiments were done according to published protocols. TIR1/AFBS was expressed in insect cell culture using a recombinant baculovirus. The construct contained sequences for three affinity tags, namely 6 His, maltose-binding protein (MBP) and FLAG. Initial purification using the His tag was followed by clean-up using FLAG chromatography, the purified protein was used for SPR assays by passing it over a streptavidin chip loaded with biotinylated IAA2/IAA7 degron peptides.
The SPR buffer was Hepes-buffered saline with 10 mM Hepes, 3 mM EDTA, 150 mM NaCl and 0.05% Tween 20. Compounds to be tested were premixed with the protein to a final 50 μM concentration. Binding experiments were run at a flow rate of 30 μl min^−1 using 2.0 min of injection time and 4.0 min of dissociation time. Data from a control channel (mIAA7) and from a buffer+DMSO-only run were subtracted from each sensogram following the standard double reference subtraction protocol.

[3] = test system: S. orientale populations from Southern Australia; assay: single-rate 2,4-D resistance screen of S. orientale populations; assay type: in vivo, Sisymbrium orientale; conditions: eight populations; 250 g ha^-1 2,4-D at 4-leaf stage; leaf curl 48 h, confirmed 21 days
Method: The presence of IAA2Δ27 in other 2,4-D resistant populations of S. orientale was also investigated. Seeds of S. orientale populations were germinated by sowing directly onto the soil surface of seedling trays containing standard potting mix. Once emerged, seedlings were transplanted into 9.5×8.5×9.5 cm punnet pots and grown outdoors at the Waite Campus, University of Adelaide, Australia. At the 4-leaf stage, plants were treated with a single rate of 250 g. a. ha^−1 2,4-D (2,4-D amine 650, FMC) to screen for resistance. Herbicide was applied using a laboratory moving boom pesticide applicator and applied at an equivalent of 109 L ha−1 of water at a pressure of 250 kPa and a speed of 1 m s−1 using Tee-Jet 001 nozzles (Tee-Jet 8001E; Spraying Systems Co., Wheaton, Ill.). Leaf curl was assessed 48 h after treatment, with any plants showing signs of leaf curl considered susceptible and tissue harvested, while the remaining plants were considered resistant and allowed to grow for a further 21 days to confirm resistance and tissue subsequently harvested.

[4] = test system: Sisymbrium orientale PB-R1 plants; conditions: PB-R1 plants vs Roseworthy S plants; cited from earlier work
[5] = test system: S. orientale RILs root growth; assay: root growth assay, S. orientale inbred lines; assay type: in vivo, Sisymbrium orientale; conditions: S. orientale RILs homozygous for IAA2Δ27 vs IAA2 wild-type allele
Method: as §1

[6] = Arabidopsis transformed with wild type S. orientale IAA2

| SMILES | increase of IAA2 expression compared to untreated plants and DMSO control (IAA2 expression; R seedlings) [fold] | increase of IAA2 expression compared to untreated plants and DMSO control (IAA2 expression; S seedlings) [fold] | relative expression (RE) of IAA2 (IAA2 expression; treated resistant plants) | relative expression (RE) of IAA2 (IAA2 expression; treated susceptible plants) | root growth tolerance compared with null vector or wild type gene (Arabidopsis root growth) | root growth response (Arabidopsis root growth) | association of the herbicide/IAA/TIR1 complex (Ka) (TIR1/auxin/IAA complex) | dissociation of the herbicide/IAA/TIR1 complex (Kd) (TIR1/auxin/IAA complex) | fold more resistant compared to S plants [4] [fold] | root growth tolerance [5] | also measured |
| --- | --- | --- | --- | --- | --- | --- | --- | --- | --- | --- | --- |
| O=C(O)COc1ccc(Cl)cc1Cl [2,4-D, 2,4-dichlorophenoxyacetic acid] | 2.5 | 4 | 0.16 | 0.55 | higher tolerance; also recorded: confers resistance | susceptible to inhibition | slower association | more rapid dissociation; also recorded: faster | 22 | – | average injury ([1]; heterozygous plants): 24%; injury ([1]; homozygous resistant plants): 12%; visual injury ([1]; sensitive plants homozygous for IAA2WT): 70%; effect of treatment on IAA2 expression (FIG. 7) (IAA2 expression; S): increases IAA2 expression; response to herbicide treatment ([2]; Arabidopsis transformed with S. orientale IAA2Δ27): resistant; response to herbicide treatment [2, 6]: susceptible; also recorded: sensitive; response to herbicide treatment ([2]; wild type Arabidopsis): susceptible; also recorded: sensitive; populations identified as resistant [3]: four identified as resistant |
| O=C(O)c1nc(Cl)ccc1Cl [Clopyralid] | – | – | – | – | higher tolerance; also recorded: confers resistance | – | – | – | – | – | – |
| COc1c(Cl)ccc(Cl)c1C(=O)O [Dicamba] | – | – | – | – | higher tolerance; also recorded: confers resistance | susceptible to inhibition | slower association | more rapid dissociation; also recorded: faster | – | – | root growth response compared with the null vector (Arabidopsis root growth; [6]): slightly more tolerant |
| O=C(O)Cc1c[nH]c2ccccc12 [IAA, indoleacetic acid] | 9.5 | 7 | 0.62 | 1 | higher tolerance; also recorded: confers resistance | – | slower association | more rapid dissociation; also recorded: faster | – | – | – |
| Cc1cc(Cl)ccc1OCC(=O)O [MCPA] | – | – | – | – | – | – | – | – | 20 | higher tolerance; also recorded: confers resistance | – |
| COc1c(Cl)ccc(-c2nc(C(=O)OCc3ccccc3)c(Cl)c(N)c2F)c1F [Rinskor (florpyrauxifen-benzyl), florpyrauxifen-benzyl] | – | – | – | – | – | – | – | – | – | confers resistance | root growth tolerance ([5]; listed as fluorpyrauxifen-benzyl): higher tolerance |
